Literature values in patent US7959947B2, “Film coating” (AstraZeneca AB, priority 2001, dated 2011).

Settings: 60° C.; according to data in Handbook of Pharmaceutical Excipients

CCCCCCCCCCCCCCCCCCOC(=O)/C=C/C(=O)[O-].[Na+] [Sodium stearyl fumarate, sodium salt of 2-butenedioic monooctadecyl ester]
Solubility in water: 0.005 gram per gram water
